According to patent US11497757B2, “Silanol based therapeutic payloads” (BlinkBio, Inc., priority 2016, dated 2022):

Key:
[1] = test system: Folate receptor alpha expressing KB cells; assay: Confocal imaging study demonstrating endocytosis and Si-O cleavage; type: cell-based; settings: 50 nM
Protocol: Example 51 as shown above contains a folate receptor targeting ligand, a spacer moiety, a siloxane core and two different fluorescent dyes (BODIPY and rhodamine) positioned on either side of the siloxane core. Folate receptor alpha expressing KB cells were grown in folic acid free media. The cells were incubated for 30 minutes on ice with 50 nM of Example 51, washed with fresh culture medium and then incubated in media at 37° C. for the desired length of time. The fate of both dyes was simultaneously monitored using confocal microscopy using Zeiss LSM 780 laser scanning microscope.

KB cells = assay: CellTiter-Glo cell viability, washout protocol; type: cell-based; settings: for EC50: washout protocol: 2 h incubation, wash, additional 70 h, siloxane based conjugates; for % Kill (48 h): washout protocol
Protocol: Washout protocol: KB cells in culture were seeded in white clear bottom 96-well tissue culture plate at a density of 5,000 cells per well in a folate free RPMI media with 10% FBS a day prior to compound addition. Cells were counted visually with a hemocytometer and diluted accordingly to obtain the desired density. Cells were allowed to incubate for 24 hours in a humidified CO2 atmosphere in an incubator at 37° C. The spent media was aspirated and replenished with 100 μL of fresh media containing a 3-fold serial dilution of compound with concentrations ranging from 0.3 to 2000 nM and with a final DMSO concentration of 0.1%. Blank wells without compound were also treated with media containing 0.1% DMSO. […] […] At the end of 70 h, the spent media was removed and cells were washed once with fresh media and then suspended 100 μL of PBS. 100 μL of constituted Cell titer-glo reagent was added to each well and luminescence was recorded with a VICTOR plate reader according to manufacturers' protocol.

In the case of CCN(CC)c1ccc2c(-c3ccc(S(=O)(=O)NCc4cnc(SC[Si](C)(C)O[Si](C)(C)CCCN5C(=O)CC(SC[C@H](NC(=O)[C@H](CNC(=O)CCC6=[N+]7C(=Cc8c(C)cc(C)n8[B-]7(F)F)C=C6)NC(=O)[C@H](CC(=O)O)NC(=O)CC[C@H](NC(=O)c6ccc(NCc7cnc8nc(N)[nH]c(=O)c8n7)cc6)C(=O)O)C(=O)O)C5=O)nc4)cc3S(=O)(=O)[O-])c3ccc(=[N+](CC)CC)cc-3oc2c1 (some centres unmarked) [Example 51], the “Folate receptor binding on cell surface (colocalization of dyes)” value ([1]; t=0) is reported as “bound to the folate receptor on the cell surface”, the “Cleavage of the siloxane core (color separation of the two dyes)” value ([1]; t=30 min, 37° C.) is reported as “cleavage of the siloxane core was observed” and the “Endocytosis of intact conjugate into the cell” value ([1]; t=30 min, 37° C.) is reported as “endocytosis of intact Example 51 into the cell was observed”.

With CC[C@]1(O)C[C@@H]2C[N@@](CCc3c([nH]c4ccccc34)[C@@](C(=O)OC)(c3cc4c(cc3OC)N(C)[C@H]3[C@@](O)(C(=O)NCCC[Si](C)(C)O[Si](C)(C)CSc5ncc(Cn6cc(COCCOCCOCCOCCOCCOCCNC(=O)CC[C@H](NC(=O)c7ccc(NCc8cnc9nc(N)[nH]c(=O)c9n8)cc7)C(=O)O)nn6)cn5)[C@H](O)[C@]5(CC)C=CCN6CC[C@]43[C@@H]65)C2)C1 [Example 24] the EC50 (KB cells) was roughly 265 nM and the “% Kill (48 h)” value (KB cells) was 84%.

CC[C@H](C)[C@@H]([C@@H](CC(=O)N1CCC[C@H]1[C@H](OC)[C@@H](C)C(=O)N[C@@H](Cc1ccccc1)C(=O)O)OC)N(C)C(=O)[C@@H](NC(=O)[C@H](C(C)C)N(C)C(=O)CCC[Si](C)(C)O[Si](C)(C)c1cccc(CC(=O)NCCOCCOCCOCCOCCOCCn2cc(COCC(COCc3cn(CCOCCOCCOCCOCCOCCNC(=O)Cc4cccc([Si](C)(C)O[Si](C)(C)CCCC(=O)N(C)[C@H](C(=O)N[C@H](C(=O)N(C)[C@@H]([C@@H](C)CC)[C@@H](CC(=O)N5CCC[C@H]5[C@H](OC)[C@@H](C)C(=O)N[C@@H](Cc5ccccc5)C(=O)O)OC)C(C)C)C(C)C)c4)nn3)(COCc3cn(CCOCCOCCOCCOCCOCCNC(=O)Cc4cccc([Si](C)(C)O[Si](C)(C)CCCC(=O)N(C)[C@H](C(=O)N[C@H](C(=O)N(C)[C@@H]([C@@H](C)CC)[C@@H](CC(=O)N5CCC[C@H]5[C@H](OC)[C@@H](C)C(=O)N[C@@H](Cc5ccccc5)C(=O)O)OC)C(C)C)C(C)C)c4)nn3)NC(=O)CCOCCOCCOCCOCCOCCOCCNC(=O)CC[C@H](NC(=O)c3ccc(NCc4cnc5nc(N)[nH]c(=O)c5n4)cc3)C(=O)O)nn2)c1)C(C)C [Example 35, Folate-PEG-Adaptor-PhenylSiLinker-TripleAuristatin] was tested, and the EC50 (KB cells) was roughly 8 nM.

With CC[C@]1(O)C[C@@H]2CN(CCc3c([nH]c4ccccc34)[C@@](C(=O)OC)(c3cc4c(cc3OC)N(C)[C@H]3[C@@](O)(C(=O)NCCC[Si](C)(C)O[Si](C)(C)CSc5ncc(Cn6cc(C[C@H](NC(=O)[C@H](CC(=O)O)NC(=O)[C@H](CC(=O)O)NC(=O)[C@H](CCCNC(=N)N)NC(=O)[C@H](CC(=O)O)NC(=O)CC[C@H](NC(=O)c7ccc(NCc8cnc9nc(N)[nH]c(=O)c9n8)cc7)C(=O)O)C(=O)O)nn6)cn5)[C@H](O)[C@]5(CC)C=CCN6CC[C@]43[C@@H]65)C2)C1 [Example 28] the EC50 (KB cells) was roughly 156 nM and the “% Kill (48 h)” value (KB cells) was 86%.
